The values below come from patent publication US7538241B2, “Hsp90 family protein inhibitors” (Kyowa Hakko Kogyo Co., Ltd., priority 2003, dated 2009).

Bounds are passed on as bounds.

This assay deals with human chronic myelocytic leukemia-derived K562 cells. As to the kind of experiment: Cell growth inhibition test with K562 cells (WST-1). The assay is classed as cell-based. To be noted: 72 hours, read-out: 50% growth inhibition concentration (GI50). On the procedure: In a 96-well plate (Nunc), human chronic myelocytic leukemia-derived K562 cells were sown in an amount of 1500 cells/well, and pre-incubated in 10% FCS-containing Rosewell Park Memorial Institute's Medium (RPMI) 1640 (Nissui) (incubation medium) in a 5% carbon dioxide incubator at 37° C. for 5 hours. Next, a DMSO solution of a test compound controlled at 10 mmol/L was stepwise diluted with the incubation medium, and added to each well in a total amount of 100 μL/well, and further incubated in the 5% carbon dioxide incubator at 37° C. for 72 hours. After the incubation, WST-1-labeled mixture (Rosh Diagnostic) diluted 2-fold with the incubation medium was added thereto in an amount of 20 μL/well, and incubated in the 5% carbon dioxide incubator at 37° C. for 2 hours. Using a microplate spectrophotometer (Biorad's Model 550), the absorbance at 450 nm and 655 nm of each well was measured. The cell growth inhibition activity of the test compound was indicated by the 50% growth inhibition concentration (GI50) thereof, like in Test Example 2.
(Tetrazolium dyes change colour on reduction, which living cells bring about.)
Consider `CCc1c(O)cc(O)c(-c2cccc(C)c2)c1CC1O[C@H](CO)[C@@H](CO)O1` [Compound 228, 5-{[(4R,5R)-4,5-bis(hydroxymethyl)-1,3-dioxolan-2-yl]methyl}-6-ethyl-4-(3-methylphenyl)benzene-1,3-diol], for which the GI50 is ≤ 50 µM.
The figure for `CCc1c(O)cc(O)c(-c2cccc(C(N)=O)c2)c1CC1O[C@@H](CO)[C@H](CO)O1` [Compound 288, 5-{[(4S,5S)-4,5-Bis(hydroxymethyl)-1,3-dioxolan-2-yl]methyl}-6-ethyl-4-(3-carbamoylphenyl)benzene-1,3-diol] is ≤ 50 µM; for `CCc1c(O)cc(O)c(-c2cccc(N)c2)c1CCOCC(O)CO` (stereo not drawn) [Compound 197, 4-(3-Aminophenyl)-5-[2-(2,3-dihydroxypropoxy)ethyl]-6-ethylbenzene-1,3-diol] it is ≤ 50 µM; for `CCc1c(O)cc(O)c(-c2cccc(C(=O)N(C)C)c2)c1CC1O[C@H](CO)[C@@H](CO)O1` [Compound 292, 5-{[(4R,5R)-4,5-bis(hydroxymethyl)-1,3-dioxolan-2-yl]methyl}-4-[3-(dimethylcarbamoyl)phenyl]-6-ethylbenzene-1,3-diol] it is ≤ 50 µM.
The figure for `CCc1c(O)cc(O)c(-c2ccccc2)c1CC(O)(CCCO)CCCO` [Compound 199, 6-Ethyl-5-[2,5-dihydroxy-2-(3-hydroxypropyl)pentyl]-4-phenylbenzene-1,3-diol] is ≤ 50 µM; for `CCc1c(O)cc(O)c(-c2ccc(F)c(Cl)c2)c1CCOCCO` [Compound 312, 4-(3-Chloro-4-fluorophenyl)-6-ethyl-5-[2-(2-hydroxyethoxy)ethyl]benzene-1,3-diol] it is ≤ 50 µM.
The figure for `CCc1c(O)cc(O)c(-c2cccc(NS(C)(=O)=O)c2)c1CCOCC(O)CO` (stereo not drawn) [Compound 202, 6-Ethyl-5-[2-(2,3-dihydroxypropoxy)ethyl]-4-{3-[N-(methylsulfonyl)amino]phenyl}benzene-1,3-diol] is ≤ 50 µM.
As for `CCc1c(O)cc(O)c(-c2ccccc2)c1CCc1ocnc1C(=O)NC(CO)CO` [Compound 225, 5-[2-(2-ethyl-3,5-dihydroxy-6-phenylphenyl)ethyl]-N-[2-hydroxy-1-(hydroxymethyl)ethyl]-1,3-oxazole-4-carboxamide], the GI50 was ≤ 50 µM.
`CCc1c(O)cc(O)c(-c2cccc(NC(C)=O)c2)c1CCOCC(O)CO` (stereo not drawn) [Compound 204, 4-[3-(N-acetylamino)phenyl]-5-[2-(2,3-dihydroxypropoxy)ethyl]-6-ethylbenzene-1,3-diol]: the GI50 is ≤ 50 µM.
Take `CCc1c(O)cc(O)c(-c2ccc(F)c(Cl)c2)c1CC1O[C@@H](CO)[C@H](CO)O1` [Compound 301, 5-{[(4S,5S)-4,5-Bis(hydroxymethyl)-1,3-dioxolan-2-yl]methyl}-4-(3-chloro-4-fluorophenyl)-6-ethylbenzene-1,3-diol]: the GI50 was ≤ 50 µM.
The figure for `CCc1c(O)cc(O)c(-c2cccc(C(=O)NC3CC3)c2)c1CC1O[C@H](CO)[C@@H](CO)O1` [Compound 305, 5-{[(4R,5R)-4,5-Bis(hydroxymethyl)-1,3-dioxolan-2-yl]methyl}-4-[3-(2-cyclopropylcarbamoyl)phenyl]-6-ethylbenzene-1,3-diol] is ≤ 50 µM; for `OC[C@@H]1OC(Cc2c(Cl)c(O)cc(O)c2-c2ccccc2)O[C@H]1CO` [Compound 285, 5-{[(4S,5S)-4,5-bis(hydroxymethyl)-1,3-dioxolan-2-yl]methyl}-6-chloro-4-phenylbenzene-1,3-diol] it is ≤ 50 µM; for `CCc1c(O)cc(O)c(-c2cccc(OCCN3CCOCC3)c2)c1CCOCC(O)CO` (stereo not drawn) [Compound 195, 5-[2-(2,3-Dihydroxypropoxy)ethyl]-6-ethyl-4-[3-(2-morpholinoethoxy)phenyl]benzene-1,3-diol] it is ≤ 50 µM.
The figure for `CCc1c(O)cc(O)c(-c2cccc(O)c2)c1CC1O[C@@H](CO)[C@H](CO)O1` [Compound 281, 5-{[(4S,5S)-4,5-bis(hydroxymethyl)-1,3-dioxolan-2-yl]methyl}-6-ethyl-4-(3-hydroxyphenyl)benzene-1,3-diol] is ≤ 50 µM; for `CCNC(=O)Nc1cccc(-c2c(O)cc(O)c(CC)c2CCOCC(O)CO)c1` (stereo not drawn) [Compound 206, 5-[2-(2,3-Dihydroxypropoxy)ethyl]-6-ethyl-4-[3-(3-ethylureido)phenyl]benzene-1,3-diol] it is ≤ 50 µM.
The figure for `CCc1c(O)cc(O)c(-c2cccc(OC)c2)c1CC1O[C@@H](CO)[C@H](CO)O1` [Compound 233, 5-{[(4S,5S)-4,5-Bis(hydroxymethyl)-1,3-dioxolan-2-yl]methyl}-6-ethyl-4-(3-methoxyphenyl)benzene-1,3-diol] is ≤ 50 µM; for `CCc1c(O)cc(O)c(-c2ccc(F)c(C)c2)c1CCOCCO` [Compound 314, 6-Ethyl-4-(4-fluoro-3-methylphenyl)-5-[2-(2-hydroxyethoxy)ethyl]benzene-1,3-diol] it is ≤ 50 µM; for `CCc1c(O)cc(O)c(-c2ccccc2)c1CCc1ocnc1C(N)=O` [Compound 222, 5-[2-(2-Ethyl-3,5-dihydroxy-6-phenylphenyl)ethyl]-1,3-oxazole-4-carboxamide] it is ≤ 50 µM.
Regarding `CCc1c(O)cc(O)c(-c2ccc(F)c(F)c2)c1CC1O[C@@H](CO)[C@H](CO)O1` [Compound 299, 5-{[(4S,5S)-4,5-bis(hydroxymethyl)-1,3-dioxolan-2-yl]methyl}-4-(3,4-difluorophenyl)-6-ethylbenzene-1,3-diol], the GI50 is ≤ 50 µM.
The figure for `OC[C@H]1OC(Cc2c(Cl)c(O)cc(O)c2-c2ccccc2)O[C@@H]1CO` [Compound 280, 5-{[(4R,5R)-4,5-bis(hydroxymethyl)-1,3-dioxolan-2-yl]methyl}-6-chloro-4-phenylbenzene-1,3-diol] is ≤ 50 µM; for `CCc1c(O)cc(O)c(-c2cccc(OC)c2)c1Cc1nn(CCO)c(=O)o1` [Compound 323, 5-{[2-Ethyl-3,5-dihydroxy-6-(3-methoxyphenyl)phenyl]methyl}-3-(2-hydroxyethyl)-3H-1,3,4-oxadiazol-2-one] it is ≤ 50 µM.
Regarding `CCc1c(O)cc(O)c(-c2cccc(O)c2)c1CC1O[C@H](COC)[C@@H](COC)O1` [Compound 307, 5-{[(4R,5R)-4,5-Bis(methoxymethyl)-1,3-dioxolan-2-yl]methyl}-6-ethyl-4-(3-hydroxyphenyl)benzene-1,3-diol], the GI50 was ≤ 50 µM.
Regarding `CCc1c(O)cc(O)c(-c2ccccc2)c1C=CC(CO)CO` [Compound 214, 6-ethyl-5-[4-hydroxy-3-(hydroxymethyl)but-1-en-1-yl]-4-phenylbenzene-1,3-diol], the GI50 was ≤ 50 µM.
The figure for `CCc1c(O)cc(O)c(-c2ccccc2)c1CCc1ocnc1C(=O)NCC(O)CO` (stereo not drawn) [Compound 226, N-(2,3-dihydroxypropyl)-5-[2-(2-ethyl-3,5-dihydroxy-6-phenylphenyl)ethyl]-1,3-oxazole-4-carboxamide] is ≤ 50 µM.
The figure for `CCc1c(OC(=O)N(C)C)cc(OC(=O)N(C)C)c(-c2ccccc2)c1CCOCCOC` [Compound 326, 1,5-Bis(dimethylcarbamoyloxy)-4-ethyl-3-[2-(2-methoxyethoxy)ethyl]-2-phenylbenzene] is ≤ 50 µM; for `CCc1c(O)cc(O)c(-c2cccc(C(=O)NC)c2)c1CC1O[C@@H](CO)[C@H](CO)O1` [Compound 289, 5-{[(4S,5S)-4,5-Bis(hydroxymethyl)-1,3-dioxolan-2-yl]methyl}-6-ethyl-4-[3-(methylcarbamoyl)phenyl]benzene-1,3-diol] it is ≤ 50 µM.
The figure for `CCc1c(O)cc(O)c(-c2cccc(NS(=O)(=O)c3ccc(C)cc3)c2)c1CCOCC(O)CO` (stereo not drawn) [Compound 203, 5-[2-(2,3-Dihydroxypropoxy)ethyl]-6-ethyl-4-{3-[N-(4-tolylsulfonyl)amino]phenyl}benzene-1,3-diol] is ≤ 50 µM; for `CCc1c(O)cc(O)c(-c2ccccc2)c1CCN1CCCC1CO` (stereo not drawn) [Compound 316, 6-Ethyl-5-{2-[2-(hydroxymethyl)pyrrolidin-1-yl]ethyl}-4-phenylbenzene-1,3-diol] it is ≤ 50 µM.
For the compound `CCc1c(O)cc(O)c(-c2cccc(C(N)=O)c2)c1CC1O[C@H](CO)[C@@H](CO)O1` [Compound 295, 5-{[(4R,5R)-4,5-bis(hydroxymethyl)-1,3-dioxolan-2-yl]methyl}-4-(3-carbamoylphenyl)-6-ethylbenzene-1,3-diol], the GI50 was ≤ 50 µM.
The figure for `CCc1c(O)cc(O)c(-c2cccc(F)c2)c1CC1O[C@@H](CO)[C@H](CO)O1` [Compound 282, 5-{[(4S,5S)-4,5-bis(hydroxymethyl)-1,3-dioxolan-2-yl]methyl}-6-ethyl-4-(3-fluorophenyl)benzene-1,3-diol] is ≤ 50 µM; for `CCc1c(O)cc(O)c(-c2ccccc2)c1Cc1n[nH]c(=O)o1` [Compound 315, 5-[(2-ethyl-3,5-dihydroxy-6-phenylphenyl)methyl]-3H-1,3,4-oxadiazol-2-one] it is ≤ 50 µM; for `CCc1c(O)cc(O)c(-c2ccccc2)c1CCN1C(=O)OCC1C(=O)OC` (stereo not drawn) [Compound 319, Methyl 3-[2-(2-ethyl-3,5-dihydroxy-6-phenylphenyl)ethyl]-2-oxo-1,3-oxazolidine-4-carboxylate] it is ≤ 50 µM.
The figure for `CCc1c(O)cc(O)c(-c2ccccc2)c1CCC(C(=O)OC)C(=O)OC` [Compound 213, Methyl 4-(2-ethyl-3,5-dihydroxy-6-phenylphenyl)-2-(methoxycarbonyl)butanoate] is ≤ 50 µM.
